± gives the standard deviation of the averaged measurements.

From the supplement of paper PMC10331698 come the findings set out here.

Holding throughout (assay): level (log10 ratio to DMSO vehicle control); higher = higher biomarker level / cell amount than vehicle control
What all share (conditions): in DMSO

Compound in experiment [1]: NC(=O)C(F)(F)C(F)(F)C(F)(F)C(F)(F)C(F)(F)C(F)(F)C(F)(F)F [Perfluorooctanamide]
The protocol:
(§1)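 BioMAP Diversity Plus panel of 12 human primary cell co-culture systems (3C, 4H, LPS, SAg, BT, BF4T, BE3C, CASM3C, HDF3CGF, KF3CT, MyoF, Mphg). Compounds were added 1 h before stimulation and left for 24 h (MyoF 48 h; BT 72 h for soluble read-outs or 6 d for IgG). Biomarkers were read by ELISA, cytotoxicity by SRB, PBMC viability and proliferation by Alamar Blue. Each well value was divided by the mean of 8 DMSO control wells on the same plate and log10 transformed; duplicate blinded samples were tested at 4 concentrations.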

Compound in experiment [2]: O=C(O)C(F)(F)C(F)(F)C(F)(F)C(=O)O [Hexafluoroglutaric acid]
The protocol:
as §1

Compound in experiment [3]: OCC(F)(F)C(F)(F)C(F)(F)F [1H,1H-Heptafluorobutanol]
Here is the method:
as §1

Compound in experiment [4]: O=S(=O)(O)C(F)(F)C(F)(F)C(F)(F)C(F)(F)C(F)(F)C(F)(F)C(F)(F)C(F)(F)F [Potassium perfluorooctanesulfonate]
The protocol:
as §1

On to BT:B cell Proliferation, for which the “level (log10)” value in experiment [1] (6700 nM) was 0.013 ± 0.024; in experiment [1] (20000 nM) it was 0.0055 ± 0.00071; in experiment [1] (60000 nM), -0.028 ± 0.054; in experiment [2] (6700 nM), -0.005 ± 0.0042; in experiment [2] (20000 nM), -0.0035 ± 0.0078; in experiment [2] (60000 nM) it was 0.011 ± 0.017. For the same test system, the “level (log10)” value is 0.0265 ± 0.0078 in experiment [3] (6700 nM); -0.0155 ± 0.026 in experiment [3] (20000 nM); -0.016 ± 0.075 in experiment [3] (60000 nM); 0.031 ± 0.016 in experiment [4] (6700 nM); 0.0425 ± 0.018 in experiment [4] (20000 nM); 0.0795 ± 0.005 in experiment [4] (60000 nM).

With BT:PBMC Cytotoxicity, the “level (log10)” value in experiment [1] (6700 nM) is 0.012 ± 0.024; in experiment [1] (20000 nM), 0.0275 ± 0.025; in experiment [1] (60000 nM) it was 0.0635 ± 0.0035; in experiment [2] (6700 nM), 0.019 ± 0.027; in experiment [2] (20000 nM), -0.017 ± 0.0071; in experiment [2] (60000 nM), 0.005 ± 0.014. Further, the “level (log10)” value in experiment [3] (6700 nM) is 0.0095 ± 0.026; in experiment [3] (20000 nM) it was -0.015 ± 0.0099; in experiment [3] (60000 nM), 0.0105 ± 0.015; in experiment [4] (6700 nM) it was -0.0055 ± 0.022; in experiment [4] (20000 nM) it was 0.0125 ± 0.033; in experiment [4] (60000 nM) it was 0.097 ± 0.058.

Take BT:Secreted IgG: the “level (log10)” value is 0.0065 ± 0.0064 in experiment [1] (6700 nM); 0.005 ± 0.023 in experiment [1] (20000 nM); 0.0215 ± 0.025 in experiment [1] (60000 nM); -0.026 ± 0.04 in experiment [2] (6700 nM); 0.055 ± 0.013 in experiment [2] (20000 nM); 0.019 ± 0.048 in experiment [2] (60000 nM). Further, the “level (log10)” value was 0.0305 ± 0.0078 in experiment [3] (6700 nM); 0.0055 ± 0.053 in experiment [3] (20000 nM); 0.027 ± 0.023 in experiment [3] (60000 nM); 0.0115 ± 0.018 in experiment [4] (6700 nM); 0.018 ± 0.0071 in experiment [4] (20000 nM); -0.0055 ± 0.005 in experiment [4] (60000 nM).

BT:sIL-2: the “level (log10)” value is 0.0115 ± 0.063 in experiment [1] (6700 nM); 0.0045 ± 0.084 in experiment [1] (20000 nM); -0.176 ± 0.17 in experiment [1] (60000 nM); -0.006 ± 0.11 in experiment [2] (6700 nM); 0.0205 ± 0.039 in experiment [2] (20000 nM); 0.061 ± 0.013 in experiment [2] (60000 nM). For the same test system, the “level (log10)” value in experiment [3] (6700 nM) is -0.0065 ± 0.077; in experiment [3] (20000 nM), -0.0265 ± 0.011; in experiment [3] (60000 nM) it was 0.0365 ± 0.029; in experiment [4] (6700 nM) it was 0.042 ± 0.027; in experiment [4] (20000 nM), 0.0595 ± 0.029; in experiment [4] (60000 nM), -0.0325 ± 0.077.

As for BT:sIL-6, the “level (log10)” value in experiment [1] (6700 nM) was 0.01 ± 0.023; in experiment [1] (20000 nM), 0.0355 ± 0.03; in experiment [1] (60000 nM), -0.07 ± 0.025; in experiment [2] (6700 nM) it was -0.0105 ± 0.11; in experiment [2] (20000 nM) it was 0.0275 ± 0.021; in experiment [2] (60000 nM), -0.0155 ± 0.088. The “level (log10)” value in experiment [3] (6700 nM) was 0.006 ± 0.044; in experiment [3] (20000 nM), 0.049 ± 0.0071; in experiment [3] (60000 nM), 0.0385 ± 0.043; in experiment [4] (6700 nM) it was 0.0165 ± 0.042; in experiment [4] (20000 nM), 0.0765 ± 0.016; in experiment [4] (60000 nM), -0.023 ± 0.11.

BT:sIL-17A: the “level (log10)” value was 0.122 ± 0.016 in experiment [1] (6700 nM); 0.0965 ± 0.0035 in experiment [1] (20000 nM); 0.034 ± 0.26 in experiment [1] (60000 nM); 0.02 ± 0.073 in experiment [2] (6700 nM); -0.0205 ± 0.21 in experiment [2] (20000 nM); -0.0585 ± 0.12 in experiment [2] (60000 nM). The “level (log10)” value in experiment [3] (6700 nM) was -0.145 ± 0.19; in experiment [3] (20000 nM) it was -0.166 ± 0.005; in experiment [3] (60000 nM) it was -0.0935 ± 0.25; in experiment [4] (6700 nM) it was 0.023 ± 0.25; in experiment [4] (20000 nM), 0.158 ± 0.1; in experiment [4] (60000 nM), -0.133 ± 0.022.
